According to the Kinase Knowledgebase extract (Sharma et al. 2016):

What follows are compounds tested against MAPK14 (UniProt Q16539) (assay: Inhibition of MAPK14 Kinase Activity).
MAPK14, sequence (Q16539 whole entry, looked up): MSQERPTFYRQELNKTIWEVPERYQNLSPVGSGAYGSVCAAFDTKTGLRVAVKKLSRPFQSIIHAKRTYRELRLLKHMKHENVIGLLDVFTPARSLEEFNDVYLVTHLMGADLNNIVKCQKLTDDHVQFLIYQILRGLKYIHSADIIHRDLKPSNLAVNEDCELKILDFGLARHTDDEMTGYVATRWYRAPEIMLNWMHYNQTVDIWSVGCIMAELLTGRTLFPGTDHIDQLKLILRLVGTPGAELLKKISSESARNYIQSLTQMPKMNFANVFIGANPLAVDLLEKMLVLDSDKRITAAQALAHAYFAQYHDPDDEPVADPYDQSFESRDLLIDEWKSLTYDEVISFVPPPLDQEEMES

IC50, < 10 µM:
Cc1ccc(C(=O)NC2CC2)cc1-c1ccc2c(cnn2S(C)(=O)=O)c1, Cc1c(F)cc(C(=O)NC2CC2)cc1-c1ccc2c(cnn2S(=O)(=O)c2ccc(Cl)cc2)c1, Cc1ccc(C(=O)NC2CC2)cc1-c1ccc2c(cnn2S(=O)(=O)c2ccc(F)c(F)c2)c1, Cc1ccc(C(=O)Nc2nncs2)cc1-c1ccc2c(C3CCNCC3)noc2c1, CCCCc1ccc(S(=O)(=O)n2ncc3cc(-c4cc(C(=O)NC5CC5)cc(F)c4C)ccc32)cc1, Cc1ccc(NC(=O)c2ccoc2)cc1-c1ccc2c(C)noc2c1, COc1cccc(S(=O)(=O)n2ncc3cc(-c4cc(C(=O)NC5CC5)ccc4C)ccc32)c1, Cc1ccc(C(=O)NC2CC2)cc1-c1ccc2c(cnn2S(=O)(=O)c2ccccc2F)c1, COC(=O)c1ccc(CS(=O)(=O)n2ncc3cc(-c4cc(C(=O)NC5CC5)ccc4C)ccc32)cc1, CCCNC(=O)c1noc2cc(-c3cc(C(=O)NC4CC4)cc(F)c3C)ccc12, Cc1c(F)cc(C(=O)NC2CC2)cc1-c1ccc2c(cnn2S(=O)(=O)c2ccc(C(C)C)cc2)c1, Cc1c(F)cc(C(=O)NC2CC2)cc1-c1ccc2c(cnn2S(=O)(=O)c2cc(F)cc(F)c2)c1, Cc1ccc(C(=O)NC2CC2)cc1-c1ccc2c(N3CCNCC3)noc2c1, Cc1ccc(C(=O)NC2CC2)cc1-c1ccc2c(cnn2S(=O)(=O)c2ccccc2C#N)c1, COc1cccc(CNC(=O)Cc2noc3cc(-c4cc(C(=O)NC5CC5)ccc4C)ccc23)c1, Cc1ccccc1S(=O)(=O)n1ncc2cc(-c3cc(C(=O)NC4CC4)cc(F)c3C)ccc21, Cc1c(F)cc(C(=O)NC2CC2)cc1-c1ccc2c(cnn2S(=O)(=O)c2ccc3c(c2)CCO3)c1, Cc1ccc(C(=O)NC2CC2)cc1-c1ccc2c(cnn2S(=O)(=O)C(C)C)c1, Cc1ccc(C(=O)NC2CC2)cc1-c1ccc2c(S(=O)(=O)c3ccc(F)cc3)n[nH]c2c1, Cc1ccc(C(=O)NC2CC2)cc1-c1ccc2c(cnn2S(=O)(=O)c2ccc3c(c2)CCO3)c1, Cc1c(F)cc(C(=O)NC2CC2)cc1-c1ccc2[nH]ncc2c1, Cc1ccc(S(=O)(=O)n2ncc3cc(-c4cc(C(=O)NC5CC5)ccc4C)ccc32)cc1, Cc1ccc(C(=O)NC2CC2)cc1-c1ccc2c(CN3CCCC3)noc2c1, Cc1ccc(C(=O)Nc2cccc(N3CCOCC3)c2)cc1-c1ccc2c(C)noc2c1, Cc1ccc(C(=O)NC2CC2)cc1-c1ccc2c(CNC(CO)CO)noc2c1, Cc1ccc(C(=O)NC2CC2)cc1-c1ccc2c(CC(=O)NCC3CC3)noc2c1, CC(=O)c1ccc(S(=O)(=O)n2ncc3cc(-c4cc(C(=O)NC5CC5)ccc4C)ccc32)cc1, Cc1ccc(C(=O)NC2CC2)cc1-c1ccc2c(N)noc2c1, CCCS(=O)(=O)n1ncc2cc(-c3cc(C(=O)NC4CC4)cc(F)c3C)ccc21, Cc1c(F)cc(C(=O)NC2CC2)cc1-c1ccc2c(cnn2S(=O)(=O)c2cccs2)c1, Cc1c(F)cc(C(=O)NC2CC2)cc1-c1ccc2c(cnn2S(=O)(=O)c2ccccc2)c1, COc1ccc(CNC(=O)Cn2ncc3cc(-c4cc(C(=O)NC5CC5)ccc4C)ccc32)cc1, COc1ccc(CNC(=O)Cn2ncc3cc(-c4cc(C(=O)NC5CC5)cc(F)c4C)ccc32)cc1, Cc1ccc(C(=O)NC2CC2)cc1-c1ccc2c(cnn2S(=O)(=O)c2ccccc2[N+](=O)[O-])c1, CCCCS(=O)(=O)n1ncc2cc(-c3cc(C(=O)NC4CC4)cc(F)c3C)ccc21, Cc1ccc(C(=O)NC2CC2)cc1-c1ccc2c(CC(=O)N3CCNCC3)noc2c1, CNC(=O)c1ccc(CNC(=O)Cn2ncc3cc(-c4cc(C(=O)NC5CC5)ccc4C)ccc32)cc1, CCNC(=O)Cc1noc2cc(-c3cc(C(=O)NC4CC4)ccc3C)ccc12, CCS(=O)(=O)n1ncc2cc(-c3cc(C(=O)NC4CC4)ccc3C)ccc21, Cc1c(F)cc(C(=O)NC2CC2)cc1-c1ccc2c(cnn2S(=O)(=O)C2CC2)c1, Cc1ccc(NC(=O)c2ccsc2)cc1-c1ccc2c(C3CCNCC3)noc2c1, Cc1ccc(C(=O)NC2CC2)cc1-c1ccc2c(cnn2S(=O)(=O)c2c(C)nn(C)c2C)c1, Cc1c(F)cc(C(=O)NC2CC2)cc1-c1ccc2c(cnn2S(C)(=O)=O)c1, Cc1c(F)cc(C(=O)NC2CC2)cc1-c1ccc2c(cnn2C(=O)OC(C)(C)C)c1, Cc1c(F)cc(C(=O)NC2CC2)cc1-c1ccc2c(cnn2S(=O)(=O)c2ccc(Cl)s2)c1, Cc1ccc(NC(=O)c2ccnc(N3CCCC3)c2)cc1-c1ccc2onc(C)c2c1, Cc1ccc(NC(=O)c2ccsc2)cc1-c1ccc2c(C)noc2c1, Cc1c(F)cc(C(=O)NC2CC2)cc1-c1ccc2c(cnn2S(=O)(=O)c2cn(C)c(C)n2)c1, Cc1ccc(C(=O)Nc2nccs2)cc1-c1ccc2c(C)noc2c1, Cc1c(F)cc(C(=O)NC2CC2)cc1-c1ccc2c(C(=O)NC3CC3)noc2c1, Cc1cccc(S(=O)(=O)n2ncc3cc(-c4cc(C(=O)NC5CC5)cc(F)c4C)ccc32)c1, Cc1ccc(C(=O)NC2CC2)cc1-c1ccc2c(N3CCOCC3)noc2c1, Cc1c(F)cc(C(=O)NC2CC2)cc1-c1ccc2c(cnn2S(=O)(=O)c2ccc(C#N)cc2)c1, Cc1c(F)cc(C(=O)NC2CC2)cc1-c1ccc2c(c1)c(C)nn2S(=O)(=O)c1cccs1, CCCS(=O)(=O)n1ncc2cc(-c3cc(C(=O)NC4CC4)ccc3C)ccc21, Cc1ccc(S(=O)(=O)n2ccc3cc(-c4cc(C(=O)NC5CC5)cc(F)c4C)ccc32)cc1, Cc1ccc(C(=O)NC2CC2)cc1-c1ccc2c(cnn2S(=O)(=O)c2cccs2)c1, Cc1c(F)cc(C(=O)NC2CC2)cc1-c1ccc2c(C(=O)NCC3CC3)noc2c1, Cc1ccc(C(=O)NC2CC2)cc1-c1ccc2c(CN3CCOCC3)noc2c1, Cc1ccc(C(=O)NC2CC2)cc1-c1ccc2c(cnn2S(=O)(=O)C2CC2)c1, Cc1c(F)cc(C(=O)NC2CC2)cc1-c1ccc2c(cnn2S(=O)(=O)c2ccccc2F)c1, Cc1ccc(C(=O)NC2CC2)cc1-c1ccc2c(CC(=O)NCCCO)noc2c1, Cc1ccc(C(=O)NC2CC2)cc1-c1ccc2c(CC(=O)NC3CC3)noc2c1, Cc1c(F)cc(C(=O)NC2CC2)cc1-c1ccc2c(cnn2CC(=O)NCC2CC2)c1, COc1cccc(NC(=O)c2ccc(C)c(-c3ccc4c(C5CCNCC5)noc4c3)c2)c1, Cc1ccc(C(=O)NC2CC2)cc1-c1ccc2c(cnn2CC2CC2)c1, CNC(=O)c1ccc(CNC(=O)Cn2ncc3cc(-c4cc(C(=O)NC5CC5)cc(F)c4C)ccc32)cc1, Cc1c(F)cc(C(=O)NC2CC2)cc1-c1ccc2c(cnn2S(=O)(=O)c2cc(F)ccc2F)c1, Cc1c(F)cc(C(=O)NC2CC2)cc1-c1ccc2[nH]nc(C)c2c1
